Data taken from patent publication US12391687B2, “Five-and-six-membered heterocyclic compound and use thereof as protein receptor kinase inhibitor” (SHANGHAI ENNOVABIO PHARMACEUTICALS CO., LTD., priority 2018, dated 2025).

Tests used:
Recombinant human TRKA = Recombinant human TRKA (Homo sapiens (Human), UniProt P04629); experiment: In vitro activity test on TRKA kinase (HTRF kinEASE TK); assay type: biochemical; conditions: 14.68 μM ATP, 40 min, room temperature
Protocol: (§1) Recombinant human TRKA, TRKB, TRKC proteins were purchased from Carna Biosciences. HTRF kinEASE TK kit was purchased from Cisbio Bioassays. Synergy Neo 2 of Biotek was used to read the plate.
(§2) The tested compounds were subjected to 3-fold serial dilution to reach a final concentration of 1 μM to 0.05 nM (10 concentrations), duplicates for each concentration; and the DMSO concentration in the detection reaction was 1%.
0.2 ng/μL TRKA protein kinase, 1 μM TK Substrate-biotin polypeptide substrate, 14.68 μM ATP, 1×enzymatic buffer, 5 mM MgCl2, and 1 mM DTT. The assay plate was White Proxiplate384-Plus plate (PerkinElmer), and the reaction was incubated at room temperature for 40 min, and the assay volume was 10 μL.
(§3) 10 μL of detection reagent (containing 0.125 μM SA-XL665 and 5 μL 1×TK-Antibody) was added to the plate and incubated overnight at room temperature. Synergy Neo 2 was used to read the plate.
(§4) The 665/620 Ratio was converted according to the following formula into inhibition rate (%)=(1−Ratiotest/Ratiomax)×100%. Ratiomax was the value of positive controls without tested compound, and Ratiotest was the value of each concentration of different compounds. IC50 (nM) data was obtained by 4 parameter curve fitting (see Table 1).

Recombinant human TRKB = Recombinant human TRKB (Homo sapiens (Human), UniProt Q16620); experiment: In vitro activity test on TRKB kinase (HTRF kinEASE TK); assay type: biochemical; conditions: 4.77 μM ATP, 50 min, room temperature
Protocol: as §1, §2
(§5) 0.037 ng/μL TRKB protein kinase, 1 μM TK Substrate-biotin polypeptide substrate, 4.77 μM ATP, 1× enzymatic buffer, 5 mM MgCl2, 1 mM MnCl2 and 1 mM DTT. The assay plate was White Proxiplate 384-Plus plate (PerkinElmer), the reaction was incubated at room temperature for 50 min, and the assay volume was 10 μL.
as §3, §4

Recombinant human TRKC = Recombinant human TRKC (Homo sapiens (Human), UniProt Q16288); experiment: In vitro activity test on TRKC kinase (HTRF kinEASE TK); assay type: biochemical; conditions: 25.64 μM ATP, 40 min, room temperature
Protocol: as §1, §2
as §5, with “ng/μL TRKC” for “ng/μL TRKB”, “substrate, 25.64” for “substrate, 4.77”, “MgCl2,” for “MgCl2, 1 mM MnCl2”, “The detection” for “The assay”, “for 40” for “for 50”
as §3, §4

KM12-LUC cells = experiment: KM12-LUC cell proliferation experiment (CellTiter-Glo); assay type: cell-based; conditions: human colon cancer cell line with TPM3-NTRK1 fusion, 72 hours
Protocol: Human colon cancer cell line KM12-LUC (LUC, stably expressing Luciferase) expressing TPM3-NTRK1 fusion gene was used to evaluate cellular activity of the compounds. The TRK fusion gene in KM12-LUC cells makes the sustained activation of TRK and the downstream signaling pathways associated with cell proliferation such as MAPK-ERK, PI3K-AKT, etc independent of the stimulation of extracellular growth factor. […] The method was as follows: On the first day, the cells were seeded into 384-well plates at 2000 cells/well; on the second day, different concentrations of test compounds were added; and on the 5th day, CellTiter-Glo (Promega) was added to detect cell viability, and the cell proliferation inhibition rate at 72 hours was calculated. Statistical analysis was carried out by PRISM5 and the IC50 of the test compounds was calculated.

[1] = biological target: recombinant human TRKA (G595R) (Homo sapiens (Human), UniProt P04629, G595R); experiment: In vitro activity test on mutant TRKA (G595R) (HTRF kinEASE TK); assay type: biochemical; conditions: 4.5 μM ATP, 30 min, room temperature; read-out: TRKA (G595R) IC 50
Protocol: The recombinant human TRKA (G595R), TRKA (G667C) and TRKC (G623R) proteins were purchased from SignalChem. HTRF kinEASE TK kit was purchased from Cisbio Bioassays. Synergy Neo 2 of Biotek was used to read the plate.
The tested compounds were subjected to 4-fold serial dilution to reach a final concentration of 1 μM to 0.004 nM (10 concentrates), duplicates for each concentration; and the final concentration of DMSO in the reaction was 1%.
0.12 ng/μL TRKA (G595R) kinase, 1 μM TK Substrate-biotin polypeptide substrate, 4.5 μM ATP, 1× enzymatic buffer, 5 mM MgCl2, and 1 mM DTT. The assay plate was White Proxiplate384-Plus plate (PerkinElmer), and the reaction was incubated at room temperature for 30 min, and the assay volume was 10 μL.
10 μL of detection reagent (containing 0.125 μM SA-XL665 and 5 μL 1×TK-Antibody) was added to the plate and incubated overnight at room temperature, and Synergy Neo 2 was used to read the plate.
The value of 665/620 Ratio minus the value of negative control wells without enzyme, then the obtained value was converted according to the following formula into inhibition rate (%)=(1−Ratiotest/Ratiomax)×100%. Ratiomax was the value of positive controls without tested compound, and Ratiotest was the value of each concentration of different compounds. IC50 (nM) data was obtained by 4 parameter curve fitting (see Table 3).

Recombinant human TRKC, sequence (Q16288 32-839): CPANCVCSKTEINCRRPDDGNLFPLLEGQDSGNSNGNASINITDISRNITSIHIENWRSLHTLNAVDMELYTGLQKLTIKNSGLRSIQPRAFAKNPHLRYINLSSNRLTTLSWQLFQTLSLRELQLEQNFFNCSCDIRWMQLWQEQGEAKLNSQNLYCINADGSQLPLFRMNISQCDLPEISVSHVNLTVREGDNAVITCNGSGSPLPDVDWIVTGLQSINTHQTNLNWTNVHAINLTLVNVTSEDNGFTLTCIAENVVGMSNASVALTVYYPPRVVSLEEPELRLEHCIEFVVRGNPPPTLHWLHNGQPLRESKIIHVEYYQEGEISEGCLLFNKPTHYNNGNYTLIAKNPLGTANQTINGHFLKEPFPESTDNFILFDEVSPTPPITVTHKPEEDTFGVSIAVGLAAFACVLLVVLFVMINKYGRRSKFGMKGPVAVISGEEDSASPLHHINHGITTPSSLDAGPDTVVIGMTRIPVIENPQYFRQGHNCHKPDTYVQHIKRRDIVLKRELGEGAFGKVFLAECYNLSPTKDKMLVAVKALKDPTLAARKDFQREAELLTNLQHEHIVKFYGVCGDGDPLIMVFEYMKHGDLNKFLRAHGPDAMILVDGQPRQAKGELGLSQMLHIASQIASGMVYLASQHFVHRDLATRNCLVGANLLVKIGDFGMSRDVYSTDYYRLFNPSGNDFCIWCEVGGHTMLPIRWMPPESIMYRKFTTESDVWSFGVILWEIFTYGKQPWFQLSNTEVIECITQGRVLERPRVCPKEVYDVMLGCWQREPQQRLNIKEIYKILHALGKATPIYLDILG
Recombinant human TRKB, sequence (Q16620 32-822): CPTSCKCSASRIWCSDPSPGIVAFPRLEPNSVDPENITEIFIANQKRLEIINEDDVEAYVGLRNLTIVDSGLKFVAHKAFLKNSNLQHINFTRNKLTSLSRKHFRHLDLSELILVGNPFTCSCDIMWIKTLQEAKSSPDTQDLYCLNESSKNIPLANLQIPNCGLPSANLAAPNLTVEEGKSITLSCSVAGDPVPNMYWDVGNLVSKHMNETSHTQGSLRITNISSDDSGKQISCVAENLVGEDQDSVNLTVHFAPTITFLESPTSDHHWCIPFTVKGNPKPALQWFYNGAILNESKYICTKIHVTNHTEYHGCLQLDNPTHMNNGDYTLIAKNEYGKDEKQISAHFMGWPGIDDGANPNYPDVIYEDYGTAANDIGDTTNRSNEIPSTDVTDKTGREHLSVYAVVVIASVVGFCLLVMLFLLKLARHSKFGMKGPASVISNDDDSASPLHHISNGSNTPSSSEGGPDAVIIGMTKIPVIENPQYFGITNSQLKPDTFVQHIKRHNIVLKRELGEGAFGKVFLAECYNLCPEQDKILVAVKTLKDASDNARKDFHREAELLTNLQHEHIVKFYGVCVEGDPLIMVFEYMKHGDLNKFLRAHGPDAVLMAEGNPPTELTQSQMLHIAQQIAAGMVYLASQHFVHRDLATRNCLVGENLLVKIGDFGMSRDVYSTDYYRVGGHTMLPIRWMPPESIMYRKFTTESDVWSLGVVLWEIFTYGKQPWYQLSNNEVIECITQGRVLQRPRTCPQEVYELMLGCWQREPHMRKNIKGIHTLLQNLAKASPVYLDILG
Recombinant human TRKA, sequence (P04629 33-796): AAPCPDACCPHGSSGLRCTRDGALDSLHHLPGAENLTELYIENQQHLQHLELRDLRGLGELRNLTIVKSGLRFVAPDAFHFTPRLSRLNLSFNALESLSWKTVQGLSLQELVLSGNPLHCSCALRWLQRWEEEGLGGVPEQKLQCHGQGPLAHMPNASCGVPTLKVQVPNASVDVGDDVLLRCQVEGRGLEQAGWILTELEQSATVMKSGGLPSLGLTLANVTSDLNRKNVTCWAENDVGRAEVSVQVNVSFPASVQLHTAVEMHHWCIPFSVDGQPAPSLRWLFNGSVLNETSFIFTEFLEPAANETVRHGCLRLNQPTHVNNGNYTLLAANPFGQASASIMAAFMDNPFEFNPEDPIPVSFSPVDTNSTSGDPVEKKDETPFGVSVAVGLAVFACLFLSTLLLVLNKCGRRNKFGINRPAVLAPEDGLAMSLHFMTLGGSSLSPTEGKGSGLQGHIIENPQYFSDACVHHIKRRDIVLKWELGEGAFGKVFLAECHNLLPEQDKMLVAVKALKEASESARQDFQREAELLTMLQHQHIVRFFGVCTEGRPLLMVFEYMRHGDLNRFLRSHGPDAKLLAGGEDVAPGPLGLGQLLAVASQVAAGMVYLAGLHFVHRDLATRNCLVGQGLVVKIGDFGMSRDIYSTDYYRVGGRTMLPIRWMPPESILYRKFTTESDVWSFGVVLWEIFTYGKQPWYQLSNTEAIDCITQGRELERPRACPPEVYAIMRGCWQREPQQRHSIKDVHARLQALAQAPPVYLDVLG
recombinant human TRKA (G595R), sequence (P04629 33-796 G595R): as the sequence (P04629 33-796) above, with G563R counted along it

## Fc1ccc(F)c([C@H]2C[C@H](F)CN2c2n[nH]c3ncc(-c4ccn(CC(F)F)n4)cc23)c1 [Example 36, 5-(1-(2,2-difluoroethyl)-1H-pyrazol-3-yl)-3-((2R,4S)-2-(2,5-difluorophenyl)-4-fluoropyrrolidin-1-yl)-1H-pyrazolo[3,4-b]pyridine]
Recombinant human TRKA
  IC50: < 1 nM
Recombinant human TRKB
  IC50: < 1 nM
Recombinant human TRKC
  IC50: < 1 nM
KM12-LUC cells
  IC50: < 10 nM
[1]
  IC50: < 1 nM

## COCc1nnc(-c2cnc3[nH]nc(N4C[C@@H](F)C[C@@H]4c4cc(F)ccc4F)c3c2)o1 [Example 37, 2-(3-((2R,4S)-2-(2,5-difluorophenyl)-4-fluoropyrrolidin-1-yl)-1H-pyrazolo[3,4-b]pyridin-5-yl)-5-(methoxymethyl)-1,3,4-oxadiazole]
Recombinant human TRKA
  IC50: < 1 nM
Recombinant human TRKB
  IC50: < 1 nM
Recombinant human TRKC
  IC50: < 1 nM
KM12-LUC cells
  IC50: < 10 nM
[1]
  IC50: < 1 nM
